Counter-ions that a name gives are not always drawn. Like-named read-outs stand apart in the source and are kept apart here.
Tests used:
[1] = target: T1, full-length human HuR protein (Homo sapiens, UniProt Q15717); test: FP-based binding of full length HuR to fluorescein-labeled target RNAs; conditions: 16 nt RNA oligo, 3′-fluorescein
T1 construct: full-length human HuR protein was produced by the KU COBRE-PSF Protein Purification Group; made in house
Protocol: FIG. 3 provides the results of a fluorescence polarization (FP)-based binding assay, illustrating that full length HuR binds to FITC-Bcl-2, Msi1, and XIAP RNA but not to scrambled oligo-FITC. The concentration of FITC-RNA used in the assay is 2 nM.
(§1) A fluorescence polarization (FP)-based binding assay was utilized to assess the inhibition of HuR protein interaction with the ARE site of Msi1 mRNA (“HuR-Msi1^ARE”) by compounds of interest. Briefly, full-length human HuR protein was produced by the KU COBRE-PSF Protein Purification Group and Bcl2, Msi1 and XIAP mRNA sequences (16 nt) were designed based on literature precedent^23,24,31,32. Fluorescein labeled RNAs were purchased from Dharmacon with the following sequences: Msi1 RNA: 5′-[…]-3′-fluorescein; Bcl-2 RNA: 5′-[…]-3′-fluorescein; XIAP RNA: 5′-[…] UGUC-3′-fluorescein, and a 16-nt degenerative RNA with 3′-fluorescein label was used as a negative control.

MDA-MB-231 cells = test: Matrigel invasion assay; type: cell-based; conditions: 24 h pretreatment, 20 h incubation
Protocol: To examine the anti-metastatic effect of compounds of the present technology, an invasion assay using Matrigel Invasion Chambers coated with Matrigel Matrix was performed. To perform the assays, MDA-MB-231 cells pretreated with compounds for 24 hours are added to the chambers and then incubated for 20 hours. Cells that remained on the upper surface of the chamber are completely removed with a cotton swab. Cells that emigrated or invaded through the membrane/Matrigel to the bottom of the chamber were fixed and stained with 0.2% crystal violet and photographed.

[2] = target: T2, HuR-bound target mRNAs in MDA-MB-231 cells (Homo sapiens, UniProt Q15717); test: Ribonucleoprotein immunoprecipitation (RNP-IP) pull-down assay; type: cell-based
T2 construct: endogenous in cells; host or cells: MDA-MB-231
T2 sequence (Q15717 2-326 limits assumed): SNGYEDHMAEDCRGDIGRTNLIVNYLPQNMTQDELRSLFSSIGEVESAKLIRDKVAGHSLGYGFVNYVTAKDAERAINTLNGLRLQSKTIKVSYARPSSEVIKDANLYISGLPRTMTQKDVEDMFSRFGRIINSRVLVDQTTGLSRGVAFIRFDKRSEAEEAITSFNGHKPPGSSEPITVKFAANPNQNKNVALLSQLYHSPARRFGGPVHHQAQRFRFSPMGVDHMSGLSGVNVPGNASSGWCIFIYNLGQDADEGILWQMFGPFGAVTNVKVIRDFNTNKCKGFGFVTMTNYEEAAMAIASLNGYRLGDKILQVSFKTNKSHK
Protocol: Pull-down Assay #2—Ribonuleoprotein Immunoprecipitation (RNP-IP): Cells with HuR overexpression were treated with compounds, then the cell cytoplasmic lysates collected using NE-PER Nuclear and Cytoplasmic Extraction Kit (Thermo Scientific), then the cell cytoplasmic lysates incubated with anti-HuR antibody, and subsequently Protein G agarose beads (from Roche) added to pull down HuR protein. The HuR-bound target mRNAs pulled down were measured by qRT-PCR using a reported method (Ji, Q., et al., MicroRNA miR-34 inhibits human pancreatic cancer tumor-initiating cells. PLoS One, 2009. 4(8): p. e6816, incorporated herein by reference). Mouse IgG will be used as negative control. Compounds of the present technology block the target mRNAs pulled down by HuR antibody.

Musashi 2 (Msi2) = Musashi 2 (Msi2) (Homo sapiens, UniProt Q96DH6); test: Msi2 FP assay; type: binding
Musashi 2 (Msi2), sequence (Q96DH6 whole entry, species assumed): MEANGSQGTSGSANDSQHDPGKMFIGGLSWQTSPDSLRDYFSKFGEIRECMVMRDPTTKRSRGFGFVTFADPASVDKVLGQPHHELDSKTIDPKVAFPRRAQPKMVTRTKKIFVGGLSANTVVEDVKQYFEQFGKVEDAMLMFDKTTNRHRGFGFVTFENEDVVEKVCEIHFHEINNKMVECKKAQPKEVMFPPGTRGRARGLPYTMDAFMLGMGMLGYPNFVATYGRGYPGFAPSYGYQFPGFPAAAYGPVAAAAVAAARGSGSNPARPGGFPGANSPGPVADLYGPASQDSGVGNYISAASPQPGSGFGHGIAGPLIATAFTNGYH
Protocol: (§2) With the FP assay of HuR-Msi1ARE binding, the inhibition of the HuR-Msi1ARE interaction by various compounds of the present technology was assessed. Similar FP assays for Musashi 2 (Msi2) and for RNA-binding protein Lin-28 homolog B (LIN28B) were also performed on various compounds of the present technology. The results of such assays for HuR are provided in Table 1 alongside the compound structures as well as ID numbers for ease of reference; the results of such assays for Msi1, Msi2, and LIN28B are provided in Table 2.

[3] = system: triple-negative breast cancer cell line MDA-MB-231; test: Cytotoxicity assay (WST-8), MDA-MB-231; type: cell-based; conditions: Homo sapiens, 96 h incubation
Protocol: (§3) The cytotoxicity of various compounds of the present technology in several cancer cell lines (pancreatic cancer cell line MIAPaCa-2, triple-negative breast cancer cell line MDA-MB-231, and colon cancer cell lines HCT116, HCT116 β/W, and RKO) was assessed by a cytotoxicity assay. Cells were seeded in 96-well culture plates (3,000-5,000 cells/well) and treated with titrated compounds in triplicate. After 96 h incubation, cell growth medium was removed and proliferation reagent WST-8 (Sigma) was added to each well and incubated at 37° C. for 1-3 h. Absorbance was then measured with a plate reader at 450 nm with correction at 650 nm. The results were expressed as the percentage of absorbance of treated wells versus that of vehicle control. IC50, the drug concentration causing 50% growth inhibition, was calculated via sigmoid curve fitting using GraphPad Prism 5.0. The results for those compounds tested against MIAPaCa-2 and MDA-MB-231 are provided in Table 1; the results for those compounds tested against colon cancer cell lines HCT116, HCT116 β/W, and RKO are provided in Table 3.

[4] = target: T1, full-length human HuR protein; test: FP assay of HuR-Msi1 ARE binding inhibition; conditions: HuR-Msi1 ARE interaction; read-out: HuR Ki via FP assay
Source text: as §1, §2

[5] = target: T3, HuR protein bound to ARE^Msi1-Biotin (Homo sapiens, UniProt Q15717); test: RNA immunoprecipitation (RNA-IP) pull-down assay; type: cell-based
T3 construct: endogenous in cells; cytoplasmic lysate
T3 sequence (Q15717 2-326 limits assumed): as the sequence (Q15717 2-326 limits assumed) above
Protocol: Pull-down Assay #1—RNA Immunoprecipitation (RNA-IP): Cells with HuR overexpression will be treated with compounds, then the cell cytoplasmic lysates were collected using NE-PER Nuclear and Cytoplasmic Extraction Kit (Thermo Scientific), and subsequently to the cell cytoplasmic lysates were added the biotinylated target ARE oligo from Msi1 mRNA (ARE^Msi1-Biotin). Following this, streptavidin beads were added to pull down HuR protein bound to ARE^Msi1-Biotin. Unlabeled target AREs used as positive control. Compounds of the present technology block the HuR pull-down by the biotinylated ARE oligo, illustrating inhibition of the HuR-mRNA interaction. For example, using 20 μM KH-39, 20 μM KH-56, and 10 μM KH-58 in such a RNA-IP assay provided the data illustrated in FIG. 5. The numbers immediately below the pictured bands in FIG. 5 are calculated by diving the band intensity of the particular sample by the band intensity of the DMSO treated sample (entry 3). […]

[6] = target: T4, RNA-binding protein Lin-28 homolog B (LIN28B) (Homo sapiens, UniProt Q6ZN17); test: LIN28B FP assay
T4 sequence (Q6ZN17 1-250): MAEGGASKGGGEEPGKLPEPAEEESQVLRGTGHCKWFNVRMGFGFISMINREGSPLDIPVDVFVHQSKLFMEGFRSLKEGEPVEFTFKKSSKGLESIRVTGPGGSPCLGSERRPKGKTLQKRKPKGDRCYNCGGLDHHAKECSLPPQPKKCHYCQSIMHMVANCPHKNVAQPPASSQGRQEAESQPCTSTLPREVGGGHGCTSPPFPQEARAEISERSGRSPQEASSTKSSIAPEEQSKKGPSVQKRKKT
Protocol: as §2

[7] = system: MDA-MB-231 HuR knockout clones (HuR KO1 and HuR KO2); test: Cytotoxicity against HuR knockout clones of MDA-MB-231; type: cell-based; conditions: HuR KO1 and HuR KO2 vs MDA-MB-231 and sgControl
Protocol: as §3
The cytotoxicity of KH-39 and KH-58 against HuR knockout clones was probed by the same assay as described above. […]

[8] = system: colon cancer cell line HCT116 β/W; test: Cytotoxicity assay (WST-8), HCT116 β/W; type: cell-based; conditions: Homo sapiens, HCT-116, 96 h incubation
Protocol: as §3

Msi1 = Msi1 (Homo sapiens, UniProt O43347); test: Msi1 FP assay; type: binding
Msi1, sequence (O43347 whole entry, species assumed): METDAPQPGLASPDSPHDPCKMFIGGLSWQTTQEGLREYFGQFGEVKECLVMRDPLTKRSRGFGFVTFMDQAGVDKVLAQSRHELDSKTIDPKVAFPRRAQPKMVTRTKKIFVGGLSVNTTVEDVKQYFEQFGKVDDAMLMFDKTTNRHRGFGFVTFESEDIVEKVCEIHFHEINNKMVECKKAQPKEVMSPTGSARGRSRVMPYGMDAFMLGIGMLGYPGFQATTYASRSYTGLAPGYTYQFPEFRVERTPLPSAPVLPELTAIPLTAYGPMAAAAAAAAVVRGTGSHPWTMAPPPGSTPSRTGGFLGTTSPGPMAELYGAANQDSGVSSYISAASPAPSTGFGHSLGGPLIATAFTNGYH
Protocol: as §2

[9] = system: colon cancer cell line HCT116; test: Cytotoxicity assay (WST-8), HCT116; type: cell-based; conditions: Homo sapiens, HCT-116, 96 h incubation
Protocol: as §3

[10] = system: HuR targets in MDA-MB-231 cells; test: Western blot analysis of HuR targets and cell death markers; type: cell-based
Source text: As HuR promotes stability of its target mRNAs, it is expected that HuR-inhibitors will block HuR function and shorten the half-life (t1/2) of target mRNAs. mRNA stability will be determined via quantitative real-time PCR (qRT-PCR) after co-treatment of compounds of the present technology and Actinomycin D (a transcription inhibitor). Because HuR also increases the translation of target mRNAs, the effect of compounds of the present technology on protein levels of HuR targets was probed by Western blot analysis.

[11] = system: colon cancer cell line RKO; test: Cytotoxicity assay (WST-8), RKO; type: cell-based; conditions: 96 h incubation
Protocol: as §3

[12] = system: pancreatic cancer cell line MIAPaCa-2; test: Cytotoxicity assay (WST-8), MIAPaCa-2; type: cell-based; conditions: Homo sapiens, MIA PaCa-2, 96 h incubation
Protocol: as §3

[13] = system: colon cancer cell line SW480; test: Cytotoxicity assay (WST-8), SW480; type: cell-based; conditions: Homo sapiens, 96 h incubation
[14] = cell marked (RRM1), read-out: Msi2 (Ki) (RRM1)

T1 sequence (Q15717 whole entry): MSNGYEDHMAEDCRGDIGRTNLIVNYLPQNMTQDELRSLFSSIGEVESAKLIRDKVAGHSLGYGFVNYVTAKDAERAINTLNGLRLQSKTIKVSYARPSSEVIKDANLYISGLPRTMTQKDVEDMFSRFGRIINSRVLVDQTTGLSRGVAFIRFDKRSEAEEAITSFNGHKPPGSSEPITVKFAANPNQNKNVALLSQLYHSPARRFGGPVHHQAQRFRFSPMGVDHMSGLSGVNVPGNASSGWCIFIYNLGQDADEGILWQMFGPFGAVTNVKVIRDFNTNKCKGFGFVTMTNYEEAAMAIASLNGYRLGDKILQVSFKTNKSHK

Compound: 5′-AAAAGAUUUAUUUAUU-3′-fluorescein (3'-fluorescein, further chemistry not given here) [Bcl-2 RNA, Fluorescein labeled 16 nt RNA purchased from Dharmacon]
- Kd [1]: 6.3 nM

Compound: O=C(Nc1ccc2[nH]c(C(=O)NO)cc2c1)c1ccccn1 [KH-56, N-hydroxy-5-(picolinamido)-1H-indole-2-carboxamide hydrochloride]
- MDA-MB-231 cell invasion (MDA-MB-231 cells; 10 μM): did not provide a statistically significant difference
- HuR pull-down of target mRNAs ([2]; 10 μM): did not provide results statistically distinguishable from vehicle control
- Ki (Musashi 2 (Msi2); cell without (RRM1) mark, read-out: Msi2 (Ki)): > 20000 nM
- IC50 [3]: 75300 nM
- Ki [4]: > 20000 nM
- ARE^Msi1-Biotin mediated pull-down of HuR protein ([5]; 20 μM): did not show pull-down of HuR protein
- Ki [6]: > 20000 nM

Compound: 5′-GCUUUUAUUUAUUUUG-3′-fluorescein (3'-fluorescein, further chemistry not given here) [Msi1 RNA, Fluorescein labeled 16 nt RNA purchased from Dharmacon]
- Kd [1]: 2 nM

Compound: 5′-UAGUUAUUUUUA UGUC-3′-fluorescein (UAGUUAUUUUUAUGUC; 3'-fluorescein, further chemistry not given here) [XIAP RNA, Fluorescein labeled 16 nt RNA purchased from Dharmacon]
- Kd [1]: 3.5 nM

Compound: CN(C)c1ccc(C(=O)Nc2ccc3sc(C(=O)NO)cc3c2)cc1 [KH-58, 5-(4-(dimethylamino)benzamido)-N-hydroxybenzo[b]thiophene-2-carboxamide]
- MDA-MB-231 cell invasion (MDA-MB-231 cells; 5 μM): clearly inhibited MDA-MB-231 cell invasion
- HuR pull-down of target mRNAs ([2]; 5 μM): at least partially block HuR pull-down of target mRNAs
- Ki (Musashi 2 (Msi2); [14]): 3350 nM
- IC50 [3]: 1310 nM
- Ki [4]: 610 nM
- IC50 of HuR KO clones versus parental cells and vector control cells [7]: two to three folds higher IC50 values
- ARE^Msi1-Biotin mediated pull-down of HuR protein ([5]; 10 μM): block ARE^Msi1-Biotin mediated pull-down of HuR protein
- Ki [6]: 4570 nM

Compound: CC(C)(C)c1ccc(C(=O)Nc2ccc3sc(/C=C/C(=O)NO)cc3c2)cc1 [KH-19, (E)-4-(tert-butyl)-N-(2-(3-(hydroxyamino)-3-oxoprop-1-en-1-yl)benzo[b]thiophen-5-yl)benzamide]
- MDA-MB-231 cell invasion (MDA-MB-231 cells; concentrations indicated in FIG. 8): inhibited MDA-MB-231 cell invasion
- Ki (Musashi 2 (Msi2); [14]): 450 nM
- IC50 [8]: 2630 nM
- Ki (Msi1): 1970 nM
- IC50 [9]: 2220 nM
- IC50 [3]: 1330 nM
- cell death mechanisms: PARP cleavage, LC3 conversion, RIP3 activation [10]: induced cell death through apoptosis, autophagy and necroptosis
- protein levels of HuR targets [10]: decreased the protein levels of HuR targets
- Ki [4]: 150 nM
- IC50 [11]: 4480 nM
- IC50 [12]: 2340 nM
- IC50 [13]: 5140 nM
- Ki [6]: 3200 nM
